Experimental data from the NIST ThermoML archive (doi:10.1021/acs.jced.9b00078).

Settings: Liquid, Other PVT measurement

CCCCCCCCCCCCCCCC [hexadecane]
mass density [kg/m3]
Settings	10000 kPa	20000 kPa	30000 kPa	40000 kPa	50000 kPa
298.2 K	775.86	782.89	788.75	793.81	799.18
303.2 K	773.66	779.38	785.01	790.38	795.64
313.2 K	764.59	773.09	778.81	784.36	789.46
323.2 K	759.8	766.48	773.19	778.83	784.38
333.2 K	753.38	760.44	767.3	773.53	779.1
348.2 K	744.11	751.32	758.67	765.1	770.98
353.2 K	740.03	748.27	755.72	762.19	768.11
373.2 K	727.81	736.02	744.18	751.02	757.42
393.2 K	713.25	723.64	732.3	739.4	746.41
413.2 K	700.27	711.23	720.49	728.42	735.85
423.2 K	694.3	705.01	714.62	722.88	730.73
433.2 K	687.01	698.74	708.69	717.4	725.14
453.2 K	674.02	686.53	696.77	706.13	714.59
463.2 K	669.34	680.32	690.8	700.49	709.18
473.2 K	660.45	673.95	685.23	695.19	704.05
